# US20110003753A1, “COMPOSITIONS AND METHODS FOR DISRUPTING THE FUNCTION OF THE TRANSCRIPTIONAL REPRESSOR COMPONENT Sin3A-PAH2 DOMAIN TO INDUCE DIFFERENTIATION AND GROWTH INHIBITION IN BREAST CANCER” (SAMUEL WAXMAN CANCER RESEARCH FOUNDATION, priority 2009, published 2011)
# Experiments:
# MDA-MB-231 = assay: Phenotypic (morphology) changes in culture; type: cell-based, human; settings: cells in culture
# Description: (§1) FIG. 1: Expression of a decoy peptide corresponding to MAD Sin3 interaction domain (SID) induces markers of differentiation and contact inhibition in MDA-MB-231 breast cancer cells. A. Schematic of the SID peptides and expression constructs used in this study. Shown in the upper panel are the design and sequence of the Tat-SID peptide and Tat-SID^SCR scrambled control. The Tat-SID peptide corresponds to amino acids 5-24 of MAD. This sequence binds Sin3 PAH2 with high affinity and has been previously used to study SID-PAH2 interactions in vitro. Peptides contain a leader sequence (YGRKKRRQGGG, SEQ ID No. 5) corresponding to the human immunodeficiency virus type 1 Tat arginine-rich RNA-binding motif (ARM), which has been mutated (RRR>GGG) to improve nuclear entry. B. Morphological changes induced by SID in MDA-MB-231 and MMTV-Myc. […] D. Confocal IF analyses showing the re-expression of membrane-associated E-cadherin induced by the expression of SID in MDA-MB-231 cells (top row) and MMTV-Myc cells (bottom row) E. Re-expression of nuclear RARβ in MDA-MB-231 cells detected by immunofluorescence microscopy. […]
# Sin3B and MAD = assay: Mammalian two-hybrid assay, GAL4 DBD-Sin3B and VP16AD-MAD in 293T cells; type: cell-based; settings: 15 μM peptide applied to the cell culture medium
# Description: FIG. 2: SID decoy peptide blocks interactions between Sin3 PAH2 and MAD and interferes with recruitment of members of the Sin3 co-repressor complex. A. GST pull-down of MAD by the Sin3A PAH2 domain is blocked by SID peptide. Sin3A PAH2 domain (amino acids 306-450) was expressed in E. coli as a GST fusion and used in a pull down assay for in vitro interaction with 35S-methionine labeled MAD (left panel) or MAD immunoprecipitated from MDA-MB-231 cell lysates (right panel). 25% of input is shown for in vitro translated MAD and 10% of input for immunoprecipitated MAD (input). Assays were performed using 15 μM Tat-SID or Tat-SID^SCR peptide unless otherwise indicated. […] 293T cells were transfected with GAL4^uas×5-Tk-Luc reporter together with mammalian two-hybrid vectors expressing a fusion of Sin3B with GAL4 DNA binding domain (GAL4^DBD) and fusions of MAD and HDAC1 (columns 5-12 and 14-21, respectively) with VP16 activation domain (VP16^AD), as well as SID expression vectors, as indicated. […]
# 24 hours prior to transfection, 293T cells were plated at 50-60% confluence on 48-well plates. […] 48 hours post-transfection luciferase activity was measured using the Dual Luciferase assay system (Promega) on a Mithras LB940 plate reader (Berthold Technologies). […]
# [1] = test system: MMTV-Myc mouse breast cancer cells; assay: Phenotypic (morphology) changes in culture; type: cell-based
# Description: as §1
# ERα and RARβ = assay: Re-expression of silenced genes in MDA-MB-231 cells; type: cell-based, human
# Description: This finding coincides with the increased expression of E-cadherin and CRBP1, known RAR target genes and the induction of p27, highly sensitive to RAR activation. […] Thus, blocking specific sites of a component of a transcriptional repressor limited to few transcription factors can be used to induce a differentiation phenotype and anti-tumor effect in breast cancer and that these events may, impart new and/or restore therapeutic targets in breast cancer.
sequence,measurement,setting,value
YGRKKRRQGGGVRMNIQMLLEAADYLERRER [SID peptide],phenotypic change of cell morphology,MDA-MB-231,cobblestone monolayers and well defined cell-cell contact accompanied by cell growth contact inhibition
same,increase in luciferase activity compared to GAL4 DBD-Sin3B and VP16AD-MAD co-expression,Sin3B and MAD,"confirmed, albeit to a lesser degree"
same,phenotypic change of cell morphology,[1],cobblestone monolayers and well defined cell-cell contact accompanied by cell growth contact inhibition
same,re-expression of ERα and RARβ,ERα and RARβ,induced the re-expression of ERα and RARβ
